Data as given in PubChem BioAssay (NCI).
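Five compound concentrations were applied to cells in 96-well plates for 48 hours; endpoints were derived by simple linear interpolation of the resulting dose-response curve. TGI marks complete inhibition of growth.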

Columns and labels:
Experiment in all cases: DTP human tumour cell line panel, 48 h
LOX IMVI melanoma = system: LOX IMVI melanoma
SN12C renal = system: SN12C renal
HOP-18 NSCLC = system: HOP-18 NSCLC
DMS 114 small cell lung = system: DMS 114 small cell lung
M19-MEL melanoma = system: M19-MEL melanoma
DMS 273 small cell lung = system: DMS 273 small cell lung
MALME-3M melanoma = system: MALME-3M melanoma
M14 melanoma = system: M14 melanoma
SF-268 CNS = system: SF-268 CNS
SF-539 CNS = system: SF-539 CNS
HOP-92 NSCLC = system: HOP-92 NSCLC
NCI-H522 lung = system: NCI-H522 lung
OVCAR-8 ovarian = system: OVCAR-8 ovarian
KM12 colon = system: KM12 colon
COLO 205 colon = system: COLO 205 colon
CCRF-CEM leukemia = system: CCRF-CEM leukemia
RXF 393 renal = system: RXF 393 renal
NCI-H226 lung = system: NCI-H226 lung
SNB-78 CNS = system: SNB-78 CNS
ACHN renal = system: ACHN renal
NCI-H460 lung = system: NCI-H460 lung
SR leukemia = system: SR leukemia
OVCAR-4 ovarian = system: OVCAR-4 ovarian
RPMI-8226 leukemia = system: RPMI-8226 leukemia
SK-MEL-2 melanoma = system: SK-MEL-2 melanoma
HOP-62 NSCLC = system: HOP-62 NSCLC
U251 CNS = system: U251 CNS
786-0 renal = system: 786-0 renal
UACC-62 melanoma = system: UACC-62 melanoma
SK-OV-3 ovarian = system: SK-OV-3 ovarian
SF-295 CNS = system: SF-295 CNS
HCT-15 colon = system: HCT-15 colon
CAKI-1 renal = system: CAKI-1 renal
K-562 leukemia = system: K-562 leukemia
A549 NSCLC = system: A549 NSCLC
UO-31 renal = system: UO-31 renal
SNB-75 CNS = system: SNB-75 CNS
EKVX NSCLC = system: EKVX NSCLC
DLD-1 colon = system: DLD-1 colon
HT29 colon = system: HT29 colon
LXFL 529 NSCLC = system: LXFL 529 NSCLC
A498 renal = system: A498 renal
IGROV1 ovarian = system: IGROV1 ovarian
HCT-116 colon = system: HCT-116 colon
OVCAR-3 ovarian = system: OVCAR-3 ovarian
KM20L2 colon = system: KM20L2 colon
SK-MEL-28 melanoma = system: SK-MEL-28 melanoma
TK-10 renal = system: TK-10 renal
UACC-257 melanoma = system: UACC-257 melanoma
SW-620 colon = system: SW-620 colon
HL-60(TB) leukemia = system: HL-60(TB) leukemia
SK-MEL-5 melanoma = system: SK-MEL-5 melanoma
OVCAR-5 ovarian = system: OVCAR-5 ovarian
XF 498 CNS = system: XF 498 CNS
MOLT-4 leukemia = system: MOLT-4 leukemia
HCC-2998 colon = system: HCC-2998 colon
SNB-19 CNS = system: SNB-19 CNS
NCI-H23 lung = system: NCI-H23 lung

Compound: O=C(Nc1ccn(CCI)c(=O)n1)c1ccccc1
- TGI (LOX IMVI melanoma): > 100 µM
- TGI (SN12C renal): > 100 µM
- TGI (HOP-18 NSCLC): > 100 µM
- TGI (DMS 114 small cell lung): > 100 µM
- TGI (M19-MEL melanoma): > 100 µM
- TGI (DMS 273 small cell lung): > 100 µM
- TGI (MALME-3M melanoma): > 100 µM
- TGI (M14 melanoma): > 100 µM
- TGI (SF-268 CNS): > 100 µM
- TGI (SF-539 CNS): > 100 µM
- TGI (HOP-92 NSCLC): > 100 µM
- TGI (NCI-H522 lung): > 100 µM
- TGI (OVCAR-8 ovarian): > 100 µM
- TGI (KM12 colon): > 100 µM
- TGI (COLO 205 colon): > 100 µM
- TGI (CCRF-CEM leukemia): > 100 µM
- TGI (RXF 393 renal): > 100 µM
- TGI (NCI-H226 lung): > 100 µM
- TGI (SNB-78 CNS): > 100 µM
- TGI (ACHN renal): > 100 µM
- TGI (NCI-H460 lung): > 100 µM
- TGI (SR leukemia): > 100 µM
- TGI (OVCAR-4 ovarian): > 100 µM
- TGI (RPMI-8226 leukemia): > 100 µM
- TGI (SK-MEL-2 melanoma): > 100 µM
- TGI (HOP-62 NSCLC): > 100 µM
- TGI (U251 CNS): > 100 µM
- TGI (786-0 renal): > 100 µM
- TGI (UACC-62 melanoma): > 100 µM
- TGI (SK-OV-3 ovarian): > 100 µM
- TGI (SF-295 CNS): > 100 µM
- TGI (HCT-15 colon): > 100 µM
- TGI (CAKI-1 renal): > 100 µM
- TGI (K-562 leukemia): > 100 µM
- TGI (A549 NSCLC): > 100 µM
- TGI (UO-31 renal): > 100 µM
- TGI (SNB-75 CNS): > 100 µM
- TGI (EKVX NSCLC): > 100 µM
- TGI (DLD-1 colon): > 100 µM
- TGI (HT29 colon): > 100 µM
- TGI (LXFL 529 NSCLC): > 100 µM
- TGI (A498 renal): > 100 µM
- TGI (IGROV1 ovarian): > 100 µM
- TGI (HCT-116 colon): > 100 µM
- TGI (OVCAR-3 ovarian): > 100 µM
- TGI (KM20L2 colon): > 100 µM
- TGI (SK-MEL-28 melanoma): > 100 µM
- TGI (TK-10 renal): > 100 µM
- TGI (UACC-257 melanoma): > 100 µM
- TGI (SW-620 colon): > 100 µM
- TGI (HL-60(TB) leukemia): > 100 µM
- TGI (SK-MEL-5 melanoma): > 100 µM
- TGI (OVCAR-5 ovarian): > 100 µM

Compound: COC1OC2COC(c3ccccc3)OC2C(O)C1Br (stereo not given)
- TGI (LOX IMVI melanoma): > 100 µM
- TGI (SN12C renal): > 100 µM
- TGI (HOP-18 NSCLC): > 100 µM
- TGI (M19-MEL melanoma): > 100 µM
- TGI (DMS 273 small cell lung): > 100 µM
- TGI (MALME-3M melanoma): > 100 µM
- TGI (M14 melanoma): > 100 µM
- TGI (SF-268 CNS): > 100 µM
- TGI (SF-539 CNS): > 100 µM
- TGI (HOP-92 NSCLC): > 100 µM
- TGI (NCI-H522 lung): > 100 µM
- TGI (OVCAR-8 ovarian): > 100 µM
- TGI (KM12 colon): > 100 µM
- TGI (XF 498 CNS): > 100 µM
- TGI (COLO 205 colon): > 100 µM
- TGI (CCRF-CEM leukemia): > 100 µM
- TGI (RXF 393 renal): > 100 µM
- TGI (SNB-78 CNS): > 100 µM
- TGI (ACHN renal): > 100 µM
- TGI (NCI-H460 lung): > 100 µM
- TGI (SR leukemia): > 100 µM
- TGI (OVCAR-4 ovarian): > 100 µM
- TGI (RPMI-8226 leukemia): > 100 µM
- TGI (HOP-62 NSCLC): > 100 µM
- TGI (U251 CNS): > 100 µM
- TGI (MOLT-4 leukemia): > 100 µM
- TGI (786-0 renal): > 100 µM
- TGI (UACC-62 melanoma): > 100 µM
- TGI (SF-295 CNS): > 100 µM
- TGI (HCT-15 colon): > 100 µM
- TGI (CAKI-1 renal): > 100 µM
- TGI (K-562 leukemia): > 100 µM
- TGI (A549 NSCLC): > 100 µM
- TGI (DLD-1 colon): > 100 µM
- TGI (HCC-2998 colon): > 100 µM
- TGI (SNB-19 CNS): > 100 µM
- TGI (HT29 colon): > 100 µM
- TGI (LXFL 529 NSCLC): > 100 µM
- TGI (A498 renal): > 100 µM
- TGI (IGROV1 ovarian): > 100 µM
- TGI (HCT-116 colon): > 100 µM
- TGI (OVCAR-3 ovarian): > 100 µM
- TGI (SK-MEL-28 melanoma): > 100 µM
- TGI (TK-10 renal): > 100 µM
- TGI (UACC-257 melanoma): > 100 µM
- TGI (SW-620 colon): > 100 µM
- TGI (HL-60(TB) leukemia): > 100 µM
- TGI (NCI-H23 lung): > 100 µM
- TGI (SK-MEL-5 melanoma): > 100 µM
- TGI (OVCAR-5 ovarian): > 100 µM

Compound: CCC(=O)N/N=C(\C=C\c1cccc(O)c1)c1sc(Nc2ccc(C)cc2[N+](=O)[O-])nc1C
- TGI (LOX IMVI melanoma): > 100 µM
- TGI (SN12C renal): > 100 µM
- TGI (HOP-18 NSCLC): > 100 µM
- TGI (DMS 114 small cell lung): > 100 µM
- TGI (M19-MEL melanoma): > 100 µM
- TGI (DMS 273 small cell lung): > 100 µM
- TGI (MALME-3M melanoma): > 100 µM
- TGI (M14 melanoma): > 100 µM
- TGI (SF-268 CNS): > 100 µM
- TGI (SF-539 CNS): > 100 µM
- TGI (HOP-92 NSCLC): 27.5 µM
- TGI (NCI-H522 lung): > 100 µM
- TGI (OVCAR-8 ovarian): > 100 µM
- TGI (KM12 colon): > 100 µM
- TGI (COLO 205 colon): > 100 µM
- TGI (CCRF-CEM leukemia): > 100 µM
- TGI (RXF 393 renal): > 100 µM
- TGI (NCI-H226 lung): > 100 µM
- TGI (SNB-78 CNS): > 100 µM
- TGI (ACHN renal): > 100 µM
- TGI (NCI-H460 lung): > 100 µM
- TGI (SR leukemia): > 100 µM
- TGI (OVCAR-4 ovarian): > 100 µM
- TGI (RPMI-8226 leukemia): > 100 µM
- TGI (SK-MEL-2 melanoma): > 100 µM
- TGI (HOP-62 NSCLC): > 100 µM
- TGI (U251 CNS): > 100 µM
- TGI (MOLT-4 leukemia): > 100 µM
- TGI (786-0 renal): > 100 µM
- TGI (UACC-62 melanoma): > 100 µM
- TGI (SK-OV-3 ovarian): > 100 µM
- TGI (SF-295 CNS): > 100 µM
- TGI (HCT-15 colon): > 100 µM
- TGI (CAKI-1 renal): > 100 µM
- TGI (K-562 leukemia): > 100 µM
- TGI (A549 NSCLC): > 100 µM
- TGI (UO-31 renal): > 100 µM
- TGI (SNB-75 CNS): > 100 µM
- TGI (EKVX NSCLC): > 100 µM
- TGI (DLD-1 colon): > 100 µM
- TGI (HCC-2998 colon): > 100 µM
- TGI (SNB-19 CNS): > 100 µM
- TGI (HT29 colon): 40.6 µM
- TGI (LXFL 529 NSCLC): > 100 µM
- TGI (A498 renal): > 100 µM
- TGI (IGROV1 ovarian): > 100 µM
- TGI (HCT-116 colon): > 100 µM
- TGI (OVCAR-3 ovarian): > 100 µM
- TGI (KM20L2 colon): > 100 µM
- TGI (SK-MEL-28 melanoma): > 100 µM
- TGI (TK-10 renal): > 100 µM
- TGI (UACC-257 melanoma): > 100 µM
- TGI (SW-620 colon): > 100 µM
- TGI (HL-60(TB) leukemia): > 100 µM
- TGI (NCI-H23 lung): 6.72 µM
- TGI (SK-MEL-5 melanoma): > 100 µM
- TGI (OVCAR-5 ovarian): > 100 µM
